Test results reported in PMC10959927, “Platinum iodido drugs show potential anti-tumor activity, affecting cancer cell metabolism and inducing ROS and senescence in gastrointestinal cancer cells” (Communications Biology, 2024).
Values joined by “and” are separate entries in the source; they are usually repeats but may differ in a detail not shown here. Equal values may be shown once. Read-outs that look alike come from different tables or passages of the source.

Tests used:
AGS cells [1] = test: Cell viability, crystal violet staining; settings: for Cell Viability without NAC: AGS cells, Fig. S6A; for IC50: read-out: IC50 concentration (± SD) at 48 h, 48 h
Experimental: (§1) Cell viability was assessed using a crystal violet-based staining method. […] The cells (2 × 10^5) were seeded in 24-multiwell dishes in 0.5 mL of complete medium and incubated overnight. […] After 48 h, cells were fixed with 1% glutaraldehyde (20–30 min), washed with distilled water, and stained with 0.1% crystal violet. […] IC50 were calculated by using GraphPad Prism (version 8.0). Nonlinear regression was used to fit the data to the log (inhibitor) versus response (variable slope).

MKN45 cells [2] = test: Cell viability, crystal violet staining; settings: for Cell Viability without NAC: MKN45 cells, Fig. S6A; for IC50: read-out: IC50 concentration (± SD) at 48 h, 48 h
Experimental: as §1

PANC1 cells [3] = test: Cell viability, crystal violet staining; settings: for Cell Viability without NAC: PANC1 cells, Fig. S6A; for IC50: read-out: IC50 concentration (± SD) at 48 h, 48 h
Experimental: as §1

[4] = tested on: telomeres, 36B4, MT-COX1, MT-CYB DNA of MKN45 cells; test: Oxidized bases (FPG-sensitive lesions) in genome regions by qPCR; type: cell-based, human; settings: MKN45, IC50 concentration 24 h, normalized to control, single replicates
Excerpt: (§2) Total cellular DNA from MKN45 and PANC1 cells was extracted using an NZY Tissue gDNA Isolation Kit (Nzytech, MB13503) following the manufacturer’s instructions and quantified using a Nanodrop (Nanodrop Spectrophotometer ND-1000, ThermoFisher Scientific, Wilmington, DE, USA). We adapted the procedure described by O’Callaghan et al.[76] to measure oxidative DNA damage at telomeres, 36B4 genomic region and at mitochondrial DNA (MT-COX1, MT-CYB). This is a qPCR method based on differences in PCR kinetics between DNA template digested by Formamidopyrimidine DNA Glycosylase (FPG, Cat no. M0240S) and undigested DNA. This enzyme recognizes and cuts 8-oxoguanine, producing apurinic sites that are converted into single-strand breaks by its apurinic sites lyase activity. These single-strand breaks inhibit the PCR, thus, the ΔCT after digesting DNA by […] (Ct digested–Ct undigested) is proportional to the oxidative damage in the amplified region. DNA was incubated with 8 Units of FPG during 3 h in FPG buffer (NEB1, M0240S). The reaction was stopped by incubation at 95 °C for 5 min. qPCR analysis was performed on 40 ng of digested or undigested genomic DNA. Each qPCR was performed in triplicate including no-template controls in a StepOne Real‐time PCR System (Applied Biosystems, 4376357). Target genes (Table 3) were amplified using SYBR Green (Applied Biosystems, MB345). Thermal cycling of the qPCR reaction was initiated with a denaturation step at 95 °C for 10 min. The process consisted of 40 cycles (denaturation at 95 °C for 15 sec, annealing at 60 °C for 30 sec, and elongation at 72 °C for 30 sec). This experiment was repeated three independent times with 10–12 replicates.

[5] = tested on: telomeres, 36B4, MT-COX1, MT-CYB DNA of PANC1 cells; test: as above; type: cell-based, human; settings: PANC1, IC50 concentration 24 h, normalized to control, single replicates
Excerpt: as §2

AGS cells [6] = test: SA-β-Gal histochemical staining; type: cell-based, human; settings: Fig. S4A
Summary of the method: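 AGS, MKN45 or PANC1 cells (5×10^4) were seeded in 24-well plates overnight before treatment. For flow cytometry, cells were PFA-fixed and stained with CellEvent Senescence Green probe (1:500), read at ex 488/em 530/30 nm. For histochemistry, cells were treated 3 h, then kept 24 h in fresh medium before SA-β-Gal staining.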

AGS cells [7] = test: RT-qPCR gene expression (CDKN1A, IL6, MMP1, MAP2K3, SOD1, SOD2, CAT, MKI67, TNFRSF10D); type: cell-based, human
Experimental: (§3) Total cellular RNA was extracted using Tri-Reagent (Life Technologies), following the manufacturer’s instructions. One μg of total RNA was primed with random primers and cDNA synthesized with an M-MLV reverse transcriptase following the manufacturer’s instructions (Promega). Target genes were amplified using a SYBR Green polymerase chain reaction assay, working with the specific primer sets listed in Table 4.
(§4) Thermal cycling of the qPCR reaction was initiated with a denaturation step at 95 °C for 10 min. The process consisted of 40 cycles (denaturation at 95 °C for 15 sec, annealing at 60 °C for 30 sec, and elongation at 75 °C for 30 sec). PCR amplifications were carried out in a StepOne Real‐time PCR System (Applied Biosystems, 4376357). Relative mRNA levels were calculated by the delta-Ct method (2-ΔΔCt), where each 1-Ct difference equals a two-fold change in transcript abundance, using GAPDH as an endogenous gene reference. ΔΔCT represents the difference between the mean ΔCT value of the cells tested and the mean ΔCT value of the calibrator, both calculated for the same PCR run.

MKN45 cells [8] = test: as above; type: cell-based, human
Experimental: as §3, §4

PANC1 cells [9] = test: as above; type: cell-based, human
Experimental: as §3, §4

[10] = MKN45, Fig. 3C, replicate values
[11] = PANC1, Fig. 3C, replicate values

## CC(C)[NH][Pt@SP3]([I])([I])[NH]C(C)C [I5, trans-[PtI2(isopropylamine)2]]
AGS cells [1]; AGS
  IC25 concentration: 15 µM
AGS cells [1]; dose 10 µM
  Cell Viability without NAC: 104.459
AGS cells [1]; dose 50 µM
  Cell Viability without NAC: 35.6312
AGS cells [1]; dose 75 µM
  Cell Viability without NAC: 33.3189
AGS cells [1]; AGS, NAC (+) 0.5 mM
  IC50: > 100 µM
AGS cells [1]; AGS, NAC (-)
  IC50: 40 µM and 38.2 µM
MKN45 cells [2]; dose 10 µM
  Cell Viability without NAC: 97.9702 and 91.0232 and 100.944
MKN45 cells [2]; dose 25 µM
  Cell Viability without NAC: 85.8879 and 70.3076 and 69.3928
MKN45 cells [2]; dose 50 µM
  Cell Viability without NAC: 44.0762 and 29.818 and 39.7772
MKN45 cells [2]; dose 75 µM
  Cell Viability without NAC: 32.4358 and 27.3279 and 29.4931
MKN45 cells [2]; MKN45, NAC (+) 0.5 mM
  IC50: > 100 µM
MKN45 cells [2]; MKN45, NAC (-)
  IC50: 30 µM and 28.7 µM
PANC1 cells [3]; dose 10 µM
  Cell Viability without NAC: 85.9915 and 83.1095 and 92.9481
PANC1 cells [3]; dose 25 µM
  Cell Viability without NAC: 34.4587 and 38.5831 and 38.2547
PANC1 cells [3]; dose 50 µM
  Cell Viability without NAC: 18.5972 and 30.025 and 31.7453
PANC1 cells [3]; dose 75 µM
  Cell Viability without NAC: 17.1129 and 21.5975 and 27.2406
PANC1 cells [3]; PANC1, NAC (+) 0.5 mM
  IC50: > 100 µM
PANC1 cells [3]; PANC1, NAC (-)
  IC50: 18 µM and 20 µM and 18.2 µM
[4]; FPG-digested vs undigested
  TEL (Fold change - ΔCt TEL), oxidative DNA damage: 0.4976 and 1.204 and 0.863 and 1.649 and 1.472 and 1.233 and 1.0991 and 1.079 and 1.087 and 1.22
[4]
  36B4 (Fold change - ΔCt 36B4), oxidative DNA damage: 1.703 and 1.211 and 0.8373 and 1.374 and 1.447 and 1.358 and 1.5791 and 1.8961 and 1.25 and 1.252 and 1.777
  MT-COX1 (Fold change - ΔCt MT-COX1), oxidative DNA damage: 1.17 and 1.1588 and 1.212 and 1.316 and 0.8751 and 0.7769 and 2.591 and 2.527 and 2.762 and 3.255
  MT-CYB (Fold change - ΔCt MT-CYB), oxidative DNA damage: 1.053 and 0.8867 and 1.024 and 1.423 and 1.446 and 1.223 and 1.361 and 1.391 and 5.526 and 1.559 and 1.507 and 3.466
[5]; FPG-digested vs undigested
  TEL (Fold change - ΔCt TEL), oxidative DNA damage: -0.2993 and -0.2888 and -0.1094 and 0.05784 and 0.7794 and 0.6409 and 1.117 and 1.284 and 1.153 and 1.2407
[5]
  36B4 (Fold change - ΔCt 36B4), oxidative DNA damage: 1.4221 and 1.29 and 0.7644 and 2.073 and 2.467 and 2.333 and 2.539 and 4.489 and 2.165 and 1.996 and 1.737
  MT-COX1 (Fold change - ΔCt MT-COX1), oxidative DNA damage: 1.203 and 1.298 and 1.208 and 1.316 and 1.536 and 0.9948 and 1.085 and 1.109 and 1.083 and 1.329
  MT-CYB (Fold change - ΔCt MT-CYB), oxidative DNA damage: 1.015 and 1.063 and 1.122 and 1.165 and 2.0159 and 1.972 and 2.298 and 2.283 and 3.887 and 4.47 and 3.714 and 6.805
AGS cells [6]
  Fold change % Senescence: 58.06% and 57.14% and 43.1%
AGS cells [7]; Fig. 3C, replicate values
  CDKN1A, Fold change vs GAPDH: 3.618 fold change and 2.316 fold change and 5.653 fold change
  IL-6, Fold change vs GAPDH: 2.065 fold change and 3.223 fold change and 3.287 fold change
  MMP-1, Fold change vs GAPDH: 226.834 fold change and 185.054 fold change and 278.046 fold change
AGS cells [7]; Fig. 4B, replicate values
  Fold change MAP2K3 vs GAPDH: 4.889 fold change and 4.056 fold change and 5.8931 fold change
AGS cells [7]; Fig. S4C
  MKI67 Fold change vs GAPDH: 0.1267 fold change and 0.1149 fold change and 0.1396 fold change
  TNFRSF10D Fold change vs GAPDH: 23.1799 fold change and 20.8545 fold change and 25.7647 fold change
AGS cells [7]; mRNA vs Control = 1
  CAT (Fold change vs GAPDH): 0.8688 Fold change and 0.7906 Fold change and 0.9547 Fold change
  SOD1 (Fold change vs GAPDH): 1.921 Fold change and 1.645 Fold change and 2.244 Fold change
  SOD2 (Fold change vs GAPDH): 1.44 Fold change and 1.254 Fold change and 1.654 Fold change
MKN45 cells [8]; MKN45, Fig. S4C
  MKI67 Fold change vs GAPDH: 0.1536 fold change and 0.123 fold change and 0.1918 fold change
  TNFRSF10D Fold change vs GAPDH: 1.273 fold change and 0.9869 fold change and 1.641 fold change
MKN45 cells [8]; MKN45, mRNA vs Control = 1
  CAT (Fold change vs GAPDH): 0.5641 Fold change and 0.4321 Fold change and 0.7364 Fold change
  SOD1 (Fold change vs GAPDH): 2.6 Fold change and 2.293 Fold change and 2.9486 Fold change
  SOD2 (Fold change vs GAPDH): 1.053 Fold change and 0.9005 Fold change and 1.465 Fold change
MKN45 cells [8]; [10]
  CDKN1A, Fold change vs GAPDH: 3.253 fold change and 2.596 fold change and 4.076 fold change
  IL-6, Fold change vs GAPDH: 0.4948 fold change and 2.435 fold change and 1.266 fold change
  MMP-1, Fold change vs GAPDH: 7.796 fold change and 5.223 fold change and 11.6341 fold change
MKN45 cells [8]; MKN45, Fig. 4B, replicate values
  Fold change MAP2K3 vs GAPDH: 1.986 fold change and 1.696 fold change and 2.324 fold change
PANC1 cells [9]; PANC1, Fig. S4C
  MKI67 Fold change vs GAPDH: 1.955 fold change and 1.4208 fold change and 2.69 fold change
  TNFRSF10D Fold change vs GAPDH: 5.496 fold change and 3.924 fold change and 7.699 fold change
PANC1 cells [9]; PANC1, mRNA vs Control = 1
  CAT (Fold change vs GAPDH): 1.529 Fold change and 1.325 Fold change and 1.766 Fold change
  SOD1 (Fold change vs GAPDH): 1.806 Fold change and 1.686 Fold change and 1.679 Fold change
  SOD2 (Fold change vs GAPDH): 0.6164 Fold change and 0.5428 Fold change and 0.7 Fold change
PANC1 cells [9]; [11]
  CDKN1A, Fold change vs GAPDH: 4.551 fold change and 3.906 fold change and 5.303 fold change
  IL-6, Fold change vs GAPDH: 7.572 fold change and 6.429 fold change and 8.917 fold change
  MMP-1, Fold change vs GAPDH: 12.6345 fold change and 9.391 fold change and 8.708 fold change
PANC1 cells [9]; PANC1, Fig. 4B, replicate values
  Fold change MAP2K3 vs GAPDH: 3.332 fold change and 2.993 fold change and 3.71 fold change
